Reference: ChEMBL document CHEMBL5038569, “Targeting RECQL5 Functions, by a Small Molecule, Selectively Kills Breast Cancer in Vitro and in Vivo” (J Med Chem, 2021)
Active and inactive are the calls of the source. No cut-off for these calls is given here.

Tests used:
MCF7 [1] = assay: Inhibition of homologous recombinant repair in human MCF7 cells expressing RECQL5 wildtype/ SceGFP/iGFP mutants assessed as I-SceI induced generation of resected double stand breaks by measuring GFP-expressing cells at 10 uM measured after 48 hrs by flow cytometry analysis; type: functional, cell-based
MCF7 [2] = assay: Reversal of RECQL5 knock out resistance phenotype in human MCF7 cells expressing RECQL5-RFP assessed as reduction in cell viability at 6 to 25 uM measured after 72 hrs by MTT assay; type: functional, cell-based; conditions: dose 6-25 µM
[3] = Toxicity in nude mouse xenografted with human MCF7 cells assessed as morphological changes in liver at 50 mg/kg, po administered via oral gavage and measured after 30 days; type: organism-based; conditions: in vivo, 720 h, time 30 day
MCF7 [4] = assay: Cytotoxicity against human MCF7 cells expressing wild type RECQL5 assessed as inhibition of colony formation measured after 8 to 10 days by clonogenic survival assay; type: functional, cell-based
[5] = Cytotoxicity against human MCF-10A cells expressing RECQL5 assessed as cell growth inhibition measured after 72 hrs by MTT assay; type: toxicity, cell-based
MCF7 [6] = assay: Cytotoxicity against human MCF7 cells expressing wild type RECQL5 assessed as cell growth inhibition measured after 72 hrs by MTT assay; type: functional; conditions: dose 6-50 µM
MCF7 [7] = assay: Inhibition of homologous recombinant repair in human MCF7 cells expressing RECQL5 wildtype assessed as stabilization of RAD51-RECQL5 interaction by measuring increase in RAD51 foci formation at 20 uM measured after 4 to 24 hrs by immunofluorescence microscopic analysis; type: functional, cell-based; conditions: time 4-24 hrs
[8] = Toxicity in […] mouse assessed as fold change in SGPT level at 100 mg/kg, po administered as single dose via gavage measured after 30 days relative to control; type: organism-based; conditions: in vivo, 720 h, time 30 day
[9] = Toxicity in […] mouse assessed as fold change in spleen cell count at 100 mg/kg, po administered as single dose via gavage measured after 30 days relative to control; type: organism-based; conditions: in vivo, 720 h, time 30 day
MCF7 [10] = assay: Cytotoxicity against RECQL5 knock out human MCF7 cells assessed as cell growth inhibition measured after 72 hrs by MTT assay; type: functional; conditions: dose 6-50 µM
[11] = Toxicity in nude mouse xenografted with human MCF7 cells assessed as body weight loss at 50 mg/kg, po administered via oral gavage for 30 days and measured every 5 days; type: organism-based; conditions: in vivo, 720 h, time 30 day
[12] = Toxicity in nude mouse xenografted with human MCF7 cells assessed as morphological changes in lungs at 50 mg/kg, po administered via oral gavage and measured after 30 days; type: organism-based; conditions: in vivo, 720 h, time 30 day
[13] = Toxicity in nude mouse xenografted with human MCF7 cells assessed as morphological changes in heart at 50 mg/kg, po administered via oral gavage and measured after 30 days; type: organism-based; conditions: in vivo, 720 h, time 30 day
MCF7 [14] = assay: Reversal of RECQL5 knock out resistance phenotype in human MCF7 cells expressing RFP assessed as reduction in cell viability at 6 to 25 uM measured after 72 hrs by MTT assay; type: functional, cell-based; conditions: dose 6-25 µM
MCF7 [15] = assay: Cytotoxicity against human MCF7 cells with shRNA-mediated RECQL5 depletion assessed as reduction in cell viability at 6 to 25 uM measured after 8 to 10 days by clonogenic survival assay; type: functional, cell-based; conditions: dose 6-25 µM, time 8-10 day
MCF7 [16] = assay: Cytotoxicity against human MCF7 cells expressing RECQL5-RFP wild type helicase assessed as sensitizing activity by measuring colony survival at 5 to 20 uM measured after 8 to 10 days by clonogenic survival assay; type: functional, cell-based; conditions: dose 5-20 µM, time 8-10 day
MCF7 [17] = assay: Induction of apoptosis in RECQL5 knock out human MCF7 cells assessed as increase in sub-G1 cell population measured after 72 hrs by propidium iodide/RNase A staining based flow cytometric analysis; type: functional; conditions: dose 2.5-20 µM
T47D = assay: Induction of DNA damage in human T47D cells expressing wild type RECQL5 assessed as double strand breaks by measuring increase in gamma-H2AX foci formation incubated for 24 hrs by immunofluorescence microscopic analysis; type: functional, cell-based; conditions: dose 0-20 µM
MCF7 [18] = assay: Induction of DNA damage in human MCF7 cells expressing wild type RECQL5 assessed as double strand breaks by measuring increase in phosphorylation of CHK2 at T68 residue at 20 uM measured up to 24 hrs by Western blot analysis; type: functional, cell-based; conditions: time hrs <=24
MCF7 [19] = assay: Induction of DNA damage in human MCF7 cells expressing wild type RECQL5 assessed as double strand breaks by measuring increase in phosphorylation of ATR at S428 residue at 20 uM measured up to 24 hrs by Western blot analysis; type: functional, cell-based; conditions: time hrs <=24
MCF7 [20] = assay: Induction of DNA damage in human MCF7 cells expressing wild type RECQL5 assessed as double strand breaks by measuring increase in phosphorylation of p53 at S15 residue at 20 uM measured up to 24 hrs by Western blot analysis; type: functional, cell-based; conditions: time hrs <=24
MCF7 [21] = assay: Induction of DNA damage in RECQL5 knock out human MCF7 cells assessed as double strand breaks by measuring increase in phosphorylation of ATR at S428 residue at 20 uM measured up to 24 hrs by Western blot analysis; type: functional, cell-based; conditions: time hrs <=24
MCF7 [22] = assay: Induction of DNA damage in RECQL5 knock out human MCF7 cells assessed as double strand breaks by measuring increase in phosphorylation of CHK1 at S345 residue at 20 uM measured up to 24 hrs by Western blot analysis; type: functional, cell-based; conditions: time hrs <=24
MCF7 [23] = assay: Effect on NHEJ-mediated double strand break repair in RECQL5 knock out human MCF7 cells assessed as accumulation of KU80 on chromatin at 20 uM measured up to 24 hrs by Western blot analysis; type: cell-based; conditions: time hrs <=24
MCF7 [24] = assay: Effect on NHEJ-mediated double strand break repair in human MCF7 cells expressing wild type RECQL5 assessed as accumulation of DNA-dependent protein kinase on chromatin at 20 uM measured up to 24 hrs by Western blot analysis; type: cell-based; conditions: time hrs <=24
MCF7 [25] = assay: Effect on homologous recombinant repair in human MCF7 cells expressing wild type RECQL5 assessed as accumulation of RAD50 protein on chromatin at 20 uM incubated for 4 to 24 hrs by Western blot analysis; type: functional, cell-based; conditions: time 4-24 hrs, TDE = time-dependent effect
MCF7 [26] = assay: Effect on homologous recombinant repair in RECQL5 knock out human MCF7 cells assessed as accumulation of MRE11 protein on chromatin at 20 uM incubated for 4 to 24 hrs by Western blot analysis; type: functional, cell-based; conditions: time 4-24 hrs
MCF7 [27] = assay: Stabilization of RECQL5-RAD51 complex in RECQL5 knock out human MCF7 cells expressing wild type RECQL5-FLAG assessed as increase in RAD51-RECQL5-FLAG pull down at 20 uM measured after 8 hrs by coimmunoprecipitation assay; type: cell-based
MCF7 [28] = assay: Cytotoxicity against RECQL5 knock out human MCF7 cells expressing wild type RECQL5-FLAG assessed as reduction in colony formation at 10 uM measured after 8 to 10 days by clonogenic survival assay; type: functional, cell-based; conditions: time 8-10 day
MCF7 [29] = assay: Induction of mitotic catastrophe phenotype in human cisplatin-resistant MCF7 cells assessed as micronucleus formation at 20 uM pretreated with cisplatin for 8 hrs followed by compound addition and measured after 24 hrs by immunofluorescence microscopic analysis; type: functional, cell-based
MCF7 [30] = assay: Induction of mitotic catastrophe phenotype in human cisplatin-resistant MCF7 cells assessed as nuclear bridge formation at 20 uM pretreated with cisplatin for 8 hrs followed by compound addition and measured after 24 hrs by immunofluorescence microscopic analysis; type: functional, cell-based

## O=C(Nc1cc(C(F)(F)F)cc(C(F)(F)F)c1)N[C@@H](c1ccccc1)c1nnc(SCc2ccccc2)o1
MCF7 [1]
  inhibition: Active
MCF7 [2]
  Activity: Active
[3]
  Activity: Non-Toxic
MCF7 [4]
  IC50: 4.8 µM
[5]
  IC20 at 72 h: 33.4 µM
MCF7 [6]
  IC20: 8.2 µM
MCF7 [7]
  inhibition: Active
[8]
  fold change (FC): 0.92
[9]
  fold change (FC): 1.03
MCF7 [10]
  IC20: 22.3 µM
[11]
  Activity: Non-Toxic
[12]
  Activity: Non-Toxic
[13]
  Activity: Non-Toxic
MCF7 [14]
  Activity: inactive
MCF7 [15]
  Activity: inactive
MCF7 [16]
  Activity: Active
MCF7 [17]
  Activity: Dose-Dependent Effect
T47D
  Activity: Dose-Dependent Effect
MCF7 [18]
  Activity: Active
MCF7 [19]
  Activity: Active
MCF7 [20]
  Activity: Active
MCF7 [21]
  Activity: inactive
MCF7 [22]
  Activity: inactive
MCF7 [23]
  Activity: inactive
MCF7 [24]
  Activity: inactive
MCF7 [25]
  Activity: Tde
MCF7 [26]
  Activity: inactive
MCF7 [27]
  Activity: Active
MCF7 [28]
  Activity: Active
MCF7 [29]
  Activity: Active
MCF7 [30]
  Activity: Active
